# In US10155948B2, “Pharmaceutical composition for preventing or treating diabetic complications and screening method for preventive or therapeutic agent for diabetic complications” (KANGWON NATIONAL UNIVERSITY UNIVERSITY-INDUSTRY COOPERATION …, priority 2016, dated 2018):
# Biological target: T1, TGase2 (Mus musculus, UniProt P21981)
# T1 construct: from tissue; host or cells: retina of streptozotocin-diabetic C57BL/6 mice
# T1 sequence (P21981 1-686): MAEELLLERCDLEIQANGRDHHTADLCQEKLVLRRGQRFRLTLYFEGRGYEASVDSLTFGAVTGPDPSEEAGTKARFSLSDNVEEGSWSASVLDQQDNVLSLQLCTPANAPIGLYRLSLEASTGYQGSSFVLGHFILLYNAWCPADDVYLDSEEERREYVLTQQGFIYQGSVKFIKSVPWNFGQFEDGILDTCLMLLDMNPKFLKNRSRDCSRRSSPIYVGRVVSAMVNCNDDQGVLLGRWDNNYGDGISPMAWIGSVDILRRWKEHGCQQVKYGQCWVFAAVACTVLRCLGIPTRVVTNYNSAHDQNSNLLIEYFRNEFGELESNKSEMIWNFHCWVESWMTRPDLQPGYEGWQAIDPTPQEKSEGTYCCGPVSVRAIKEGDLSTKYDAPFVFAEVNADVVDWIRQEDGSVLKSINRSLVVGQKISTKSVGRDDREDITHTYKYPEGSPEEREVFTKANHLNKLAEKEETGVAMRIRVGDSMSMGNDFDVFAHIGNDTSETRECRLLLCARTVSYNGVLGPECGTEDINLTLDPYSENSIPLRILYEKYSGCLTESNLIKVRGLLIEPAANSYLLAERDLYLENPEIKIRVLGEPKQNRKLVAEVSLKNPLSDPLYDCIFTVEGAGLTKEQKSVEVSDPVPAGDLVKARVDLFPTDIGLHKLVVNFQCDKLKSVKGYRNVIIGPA
# Test: In-vivo TGase activity in retina of streptozotocin-diabetic mice
# Conditions: for hyperglycemia-induced TGase2 activation in diabetic retina (in-vivo TGase activity): diabetic mice, intravitreal 2 μl: 50 mM cystamine, 20 mM MDC, 1 μM C-peptide, 2 μM Trolox, 500 mM NAC, after 24 hrs, n=8; for increase of TGase activity in retinas of diabetic mice: intravitreal injection, 0.5 mM dopamine, 500 mM cysteamine
# Procedure: Two weeks after streptozotocin injection, diabetic mice were intravitreally injected with 2 μl of TGase inhibitors (50 mM cystamine or 20 mM MDC), 1 μM C-peptide (American Peptide Company, Sunnyvale, Calif.), ROS scavengers (2 μM Trolox or 500 mM NAC), or 65 μM mouse TG2-specific siRNA (Dharmacon, Lafayette, Colo.) into one eye and an equal volume of PBS or mouse control siRNA (Dharmacon, Lafayette, Colo.) into the contralateral eye. Non-diabetic mice were also intravitreally injected with 2 μl of PBS or mouse control siRNA into the eyes. After 24 hrs for inhibitors or C-peptide or 48 hrs for mouse TGase2 siRNA, mice were subjected to measurement of in-vivo TGase activity and vascular leakage from the retina.
# In vivo Tgase transamidating activity was determined in mouse retina using confocal microscopy (FIG. 5A). 24 hrs after intravitreal injection of TGase2 inhibitors and C-peptide or 48 h after the injection of mouse TGase2-specific siRNA, mice were deeply anaesthetized using 2.5% avertin and 48 μl of 100 mM BAPA was injected into the left ventricle. BAPA was allowed to circulate for 10 min and mice were sacrificed by cervical dislocation. Eyes were then enucleated and immediately fixed with 4% paraformaldehyde for 45 min. Retinas were dissected in the Maltese cross-configuration and permeabilized with 0.2% Triton X-100 in PBS for 30 min at RT. After incubation with the blocking solution for 30 min, retinas were treated with FITC-conjugated streptavidin (1:200, v/v) in the blocking solution for 1 hr at RT. The superficial vessels of stained retinas (n=8 per group) were observed using confocal microscopy and fluorescence intensities were analyzed using Fluoview software (FV-300). In-vivo TGase activities were quantitatively determined using fluorescence intensities in the retinas of normal and diabetic mice.
# Six-week-old male C57BL/6 mice were obtained from KOATECH (Pyeongtaek, Korea). TGase2^−/− mice (C57BL/6) were prepared by disrupting exons 5 and 6 of TGase2 by homologous recombination, as previously described. Diabetic mice were generated by a single intraperitoneal injection of streptozotocin (150 mg/kg body weight, Sigma) freshly prepared in 100 mM citrate buffer (pH 4.5) as previously described. Mice with non-fasting blood glucose levels greater than 19 mM, polyuria and glucosuria were considered diabetic. Experiments were performed in strict accordance with the guidelines of the Institutional Animal Care and Use Ethics Committee of Kangwon National University.
# To validate the in-vitro findings, the present inventors further investigated the role of TGase2 in hyperglycemia-induced vascular leakage in the retina of diabetic mice. For this study, the present inventors designed an in-vivo TGase activity assay using confocal microscopy in mouse retina (FIG. 5A). In this assay, BAPA, which is a TGase2 pseudo substrate, was systemically delivered into the blood circulatory system by injection into the left ventricles of mice, and biotinylated proteins in the retinas were probed with FITC-conjugated streptavidin.
# (A) A schematic diagram for determining TGase2 activity in mouse retina. (B,C) Streptozotocin-induced diabetic mice were intravitreally injected with 2 μl cystamine (diabetic+Cys), MDC (diabetic+MDC), C-peptide (diabetic+C-pep), Trolox (diabetic+Trolox) or NAC (diabetic+NAC) into one eye and an equal volume of PBS into the contralateral eye (diabetic). Non-diabetic mice were also intravitreally injected with 2 μl PBS into both eyes (normal). TGase2 activities in retinas were visualized by confocal microscopy and quantitatively determined as described in Research Design and Methods (n=8 per group). (B) Representative TGase activity images in the retinas. […] Scale bar, […]. (C) In-vivo TGase activities were quantified by measuring the fluorescence intensity in retinas (***p<0.001). […]
hyperglycemia-induced TGase2 activation in diabetic retina (in-vivo TGase activity),increase of TGase activity in retinas of diabetic mice,Compound
suppressed,,"CN(C)c1cccc2c(S(=O)(=O)NCCCCCN)cccc12 [MDC, monodansylcadaverine]"
suppressed,,NCCSSCCN [cystamine]
,inhibited,NCCS [cysteamine]
,inhibited,NCCc1ccc(O)c(O)c1 [dopamine]
prevented,,Cc1c(C)c2c(c(C)c1O)CCC(C)(C(=O)O)O2 (centres unmarked) [Trolox]
